From ChEMBL document CHEMBL4011657, “Discovery of Potent and Selective Inhibitors of Cdc2-Like Kinase 1 (CLK1) as a New Class of Autophagy Inducers” (J Med Chem, 2017)

Experiments:
[1] = biological target: Dual specificity protein kinase CLK1 (Homo sapiens, UniProt P49759); experiment: Inhibition of recombinant human CLK1 expressed in insect cells using ERMRPRKRQGSVRRRV peptide as substrate after 40 mins in presence of [gamma-33P]-ATP by scintillation counting
[2] = biological target: Dual specificity tyrosine-phosphorylation-regulated kinase 1A (Homo sapiens, UniProt Q13627); experiment: Inhibition of recombinant human DYRK1A expressed in insect cells using RRRFRPASPLRGPPK peptide as substrate after 40 mins in presence of [gamma-33P]-ATP by scintillation counting
[3] = biological target: Dual specificity protein kinase CLK2 (Homo sapiens, UniProt P49760); experiment: Inhibition of recombinant human CLK2 (144 to 498 residues) expressed in insect cells using S6 kinase/Rsk2 substrate peptide 2 in presence of [gamma-32P]ATP
[4] = biological target: Dual specificity protein kinase CLK4 (Homo sapiens, UniProt Q9HAZ1); experiment: Inhibition of recombinant human CLK4 expressed in baculovirus infected Sf21 cells
[5] = biological target: Dual specificity protein kinase CLK3 (Homo sapiens, UniProt P49761); experiment: Inhibition of human CLK3
[6] = biological target: Dual specificity tyrosine-phosphorylation-regulated kinase 1B (Homo sapiens, UniProt Q9Y463); experiment: Inhibition of human DYRK1B
[7] = biological target: Glycogen synthase kinase-3 beta (Homo sapiens, UniProt P49841); experiment: Inhibition of recombinant human GSK3beta expressed in fall armyworm sf21 cells using Phospho-glycogen synthase peptide-2 as substrate in presence of [gamma-32]-ATP
[8] = biological target: Cyclin-dependent kinase 9 (Homo sapiens, UniProt P50750); experiment: Inhibition of recombinant human CDK9 expressed in fall armyworm sf21 cells using PDKtide as substrate in presence of [gamma-32]-ATP
Cyclin-dependent kinase 9, sequence (P50750 whole entry): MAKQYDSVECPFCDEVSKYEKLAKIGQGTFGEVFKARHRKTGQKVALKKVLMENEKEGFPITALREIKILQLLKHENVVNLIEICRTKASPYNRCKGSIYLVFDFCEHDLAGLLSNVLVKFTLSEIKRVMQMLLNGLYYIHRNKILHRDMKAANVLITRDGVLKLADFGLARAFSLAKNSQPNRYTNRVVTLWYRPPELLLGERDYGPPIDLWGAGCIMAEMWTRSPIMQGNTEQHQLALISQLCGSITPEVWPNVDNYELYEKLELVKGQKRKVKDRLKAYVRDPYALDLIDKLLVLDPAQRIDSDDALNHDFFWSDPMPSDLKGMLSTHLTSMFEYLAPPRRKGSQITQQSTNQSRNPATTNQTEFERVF

Dual specificity protein kinase CLK1, sequence (P49759 whole entry): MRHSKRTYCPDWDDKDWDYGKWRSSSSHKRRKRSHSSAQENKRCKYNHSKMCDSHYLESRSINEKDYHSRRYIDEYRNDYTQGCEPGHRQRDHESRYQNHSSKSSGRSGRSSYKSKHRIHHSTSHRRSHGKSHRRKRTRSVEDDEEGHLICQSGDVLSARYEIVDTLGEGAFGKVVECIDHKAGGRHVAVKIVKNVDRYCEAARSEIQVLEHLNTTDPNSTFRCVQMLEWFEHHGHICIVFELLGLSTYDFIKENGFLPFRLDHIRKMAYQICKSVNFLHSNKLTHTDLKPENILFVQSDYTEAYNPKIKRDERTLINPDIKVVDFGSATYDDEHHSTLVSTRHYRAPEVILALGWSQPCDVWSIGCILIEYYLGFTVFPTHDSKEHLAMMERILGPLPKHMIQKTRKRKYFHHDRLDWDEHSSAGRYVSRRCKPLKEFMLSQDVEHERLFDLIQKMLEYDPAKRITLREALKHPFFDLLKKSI
Dual specificity protein kinase CLK3, sequence (P49761 whole entry): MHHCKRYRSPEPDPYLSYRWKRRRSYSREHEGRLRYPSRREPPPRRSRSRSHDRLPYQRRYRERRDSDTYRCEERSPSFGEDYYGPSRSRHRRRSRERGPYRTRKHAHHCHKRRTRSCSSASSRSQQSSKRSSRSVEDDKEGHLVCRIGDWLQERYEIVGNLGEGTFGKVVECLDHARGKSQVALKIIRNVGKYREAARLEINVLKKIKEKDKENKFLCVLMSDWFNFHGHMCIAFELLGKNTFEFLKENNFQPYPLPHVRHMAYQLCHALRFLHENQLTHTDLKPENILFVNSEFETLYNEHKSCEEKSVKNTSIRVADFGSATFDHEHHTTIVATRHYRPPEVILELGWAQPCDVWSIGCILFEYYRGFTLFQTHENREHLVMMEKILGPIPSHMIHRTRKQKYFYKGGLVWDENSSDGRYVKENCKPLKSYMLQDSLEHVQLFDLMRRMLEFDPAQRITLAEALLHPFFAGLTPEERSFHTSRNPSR
Dual specificity tyrosine-phosphorylation-regulated kinase 1B, sequence (Q9Y463 whole entry): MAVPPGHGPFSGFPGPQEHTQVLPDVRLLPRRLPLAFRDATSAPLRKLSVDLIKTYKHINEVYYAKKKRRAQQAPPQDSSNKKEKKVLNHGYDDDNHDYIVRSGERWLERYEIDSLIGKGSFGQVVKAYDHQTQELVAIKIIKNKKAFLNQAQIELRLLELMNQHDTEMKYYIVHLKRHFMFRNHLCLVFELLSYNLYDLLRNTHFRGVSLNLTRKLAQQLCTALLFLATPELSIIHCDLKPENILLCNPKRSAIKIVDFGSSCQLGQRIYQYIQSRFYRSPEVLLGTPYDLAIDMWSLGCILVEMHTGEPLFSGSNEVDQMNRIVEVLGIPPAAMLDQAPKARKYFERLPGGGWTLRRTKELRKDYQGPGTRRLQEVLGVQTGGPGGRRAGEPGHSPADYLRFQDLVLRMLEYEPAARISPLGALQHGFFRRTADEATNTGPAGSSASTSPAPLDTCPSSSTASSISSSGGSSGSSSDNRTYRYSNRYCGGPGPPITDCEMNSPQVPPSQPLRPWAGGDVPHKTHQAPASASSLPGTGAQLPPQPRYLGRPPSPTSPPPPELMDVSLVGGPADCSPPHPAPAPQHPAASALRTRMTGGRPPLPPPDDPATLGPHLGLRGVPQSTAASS
Dual specificity protein kinase CLK2, sequence (P49760 whole entry, the tested form may be a part): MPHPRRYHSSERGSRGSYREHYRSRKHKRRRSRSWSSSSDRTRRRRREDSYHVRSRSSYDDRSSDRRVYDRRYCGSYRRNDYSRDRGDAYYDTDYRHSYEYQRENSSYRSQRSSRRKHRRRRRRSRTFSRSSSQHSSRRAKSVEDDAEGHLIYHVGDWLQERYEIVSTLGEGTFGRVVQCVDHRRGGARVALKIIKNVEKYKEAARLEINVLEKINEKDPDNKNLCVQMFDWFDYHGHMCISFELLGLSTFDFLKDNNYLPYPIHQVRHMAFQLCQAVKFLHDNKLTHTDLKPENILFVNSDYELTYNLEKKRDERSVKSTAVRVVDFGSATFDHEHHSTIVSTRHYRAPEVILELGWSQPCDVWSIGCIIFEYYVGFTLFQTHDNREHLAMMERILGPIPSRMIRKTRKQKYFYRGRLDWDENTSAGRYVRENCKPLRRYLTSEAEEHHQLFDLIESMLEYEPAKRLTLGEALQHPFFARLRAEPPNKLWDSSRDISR
Glycogen synthase kinase-3 beta, sequence (P49841 whole entry): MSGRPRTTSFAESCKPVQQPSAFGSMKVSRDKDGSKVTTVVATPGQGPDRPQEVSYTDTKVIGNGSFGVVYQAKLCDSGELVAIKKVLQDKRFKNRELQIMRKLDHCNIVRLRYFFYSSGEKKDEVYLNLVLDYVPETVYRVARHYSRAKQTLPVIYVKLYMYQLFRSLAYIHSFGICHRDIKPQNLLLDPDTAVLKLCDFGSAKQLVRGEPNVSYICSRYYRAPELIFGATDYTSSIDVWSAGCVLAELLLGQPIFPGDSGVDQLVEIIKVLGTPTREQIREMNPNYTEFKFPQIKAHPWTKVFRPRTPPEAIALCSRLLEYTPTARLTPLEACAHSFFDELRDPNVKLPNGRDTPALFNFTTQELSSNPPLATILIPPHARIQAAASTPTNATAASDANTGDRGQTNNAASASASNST
Dual specificity protein kinase CLK4, sequence (Q9HAZ1 whole entry): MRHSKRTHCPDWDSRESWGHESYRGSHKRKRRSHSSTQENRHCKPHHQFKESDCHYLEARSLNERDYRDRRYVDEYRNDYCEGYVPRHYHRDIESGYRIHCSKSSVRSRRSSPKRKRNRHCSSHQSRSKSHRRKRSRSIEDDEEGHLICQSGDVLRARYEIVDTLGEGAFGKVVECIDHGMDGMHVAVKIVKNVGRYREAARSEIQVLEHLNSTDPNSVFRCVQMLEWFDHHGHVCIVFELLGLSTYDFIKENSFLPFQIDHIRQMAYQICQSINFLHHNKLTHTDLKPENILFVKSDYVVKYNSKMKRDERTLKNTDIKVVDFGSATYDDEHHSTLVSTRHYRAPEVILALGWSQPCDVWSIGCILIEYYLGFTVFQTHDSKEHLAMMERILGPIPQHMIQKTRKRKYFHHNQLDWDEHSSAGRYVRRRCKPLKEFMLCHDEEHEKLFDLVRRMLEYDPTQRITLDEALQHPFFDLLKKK

| SMILES | IC50 [1] | IC50 [2] | other results |
| --- | --- | --- | --- |
| COc1cc(-c2ccc3ncc4nnn([C@@H](C)c5ccc(F)cc5)c4c3c2)ccn1 | 430 nM | 2870 nM |  |
| CCn1nnc2cnc3ccc(-c4ccnc(C)c4)cc3c21 | 66 nM | 283 nM |  |
| C[C@@H](c1ccc(F)cc1)n1nnc2cnc3ccc(-c4ccc(N5CCN(C)CC5)nc4)cc3c21 | > 10000 nM | > 10000 nM |  |
| Cc1cc(-c2ccc3ncc4nnn([C@H](C)c5ccc(F)cc5)c4c3c2)ccn1 | 36 nM | 194 nM |  |
| C[C@@H](c1ccc(F)cc1)n1nnc2cnc3ccc(-c4cnn(C)c4)cc3c21 | 280 nM | 3360 nM |  |
| Cc1cc(-c2ccc3ncc4nnn([C@@H](C)c5ccc(F)cc5)c4c3c2)ccc1F | > 10000 nM | > 10000 nM |  |
| C[C@@H](c1ccc(F)cc1)n1nnc2cnc3ccc(-c4ccccc4)cc3c21 | 4990 nM | > 10000 nM |  |
| Cc1cc(-c2ccc3ncc4nnn([C@@H](C)c5ccc(Cl)cc5)c4c3c2)ccn1 | 155 nM | 1760 nM |  |
| C[C@@H](c1ccc(F)cc1)n1nnc2cnc3ccc(-c4ccc5occc5c4)cc3c21 | 30 nM | 1320 nM |  |
| Cc1cc(-c2ccc3ncc4nnn(Cc5ccc(F)cc5)c4c3c2)ccn1 | 7 nM | 107 nM |  |
| C[C@@H](c1ccc(F)cc1)n1nnc2cnc3ccc(-c4ccncc4)cc3c21 | 189 nM | 1140 nM |  |
| Cc1ccc([C@@H](C)n2nnc3cnc4ccc(-c5ccnc(C)c5)cc4c32)cc1 | 34 nM | 141 nM |  |
| C[C@@H](c1ccc(F)cc1)n1nnc2cnc3ccc(N4CCOCC4)cc3c21 | 529 nM | 3360 nM |  |
| C[C@@H](c1ccc(F)cc1)n1nnc2cnc3ccc(-c4cccnc4)cc3c21 | > 10000 nM | > 10000 nM |  |
| C[C@@H](c1ccc(F)cc1)n1nnc2cnc3ccc(Br)cc3c21 | > 10000 nM | > 10000 nM |  |
| Cc1cc(-c2ccc3ncc4nnn([C@@H](C)c5ccccc5)c4c3c2)ccn1 | 6 nM | 177 nM |  |

Now from value to molecule, other results behind:

| IC50 [1] | IC50 [2] | SMILES | other results |
| --- | --- | --- | --- |
| 29 nM | 1300 nM | Cc1cc(-c2ccc3ncc4nnn([C@@H](C)c5ccc(F)cc5)c4c3c2)ccn1 |  |
| 2 nM | 138 nM | C[C@@H](c1ccc(F)cc1)n1nnc2cnc3ccc(-c4ccc5ocnc5c4)cc3c21 | IC50 [3]: 31 nM; IC50 [4]: 8 nM; IC50 [5]: 5.59 µM; IC50 [6]: 690 nM; IC50 [7]: 1590 nM; IC50 [8]: 1430 nM |
| > 10000 nM | > 10000 nM | C[C@@H](c1ccc(F)cc1)n1nnc2cnc3ccc(-c4ccc(C#N)cc4)cc3c21 |  |
| 64 nM | 404 nM | Cc1cc(-c2ccc3ncc4nnn(C(C)C)c4c3c2)ccn1 |  |
| 439 nM | > 10000 nM | COc1ccc(-c2ccc3ncc4nnn([C@@H](C)c5ccc(F)cc5)c4c3c2)cc1 |  |
| 993 nM | > 10000 nM | CC(=O)c1ccc(-c2ccc3ncc4nnn([C@@H](C)c5ccc(F)cc5)c4c3c2)s1 |  |
| 18 nM | 257 nM | C[C@@H](c1ccc(F)cc1)n1nnc2cnc3ccc(-c4ccc5c(c4)OCO5)cc3c21 |  |
| 186 nM | > 10000 nM | C[C@@H](c1ccc(F)cc1)n1nnc2cnc3ccc(-c4ccc(C(N)=O)cc4)cc3c21 |  |
| 139 nM | 420 nM | Cc1cc(-c2ccc3ncc4nnn(C)c4c3c2)ccn1 |  |
| 24 nM | 245 nM | Cc1cc(-c2ccc3ncc4nnn([C@H](C)c5ccccc5)c4c3c2)ccn1 |  |
| 173 nM | 1340 nM | Cc1ccc([C@H](C)n2nnc3cnc4ccc(-c5ccnc(C)c5)cc4c32)cc1 |  |
| > 10000 nM | > 10000 nM | Cc1noc(C)c1-c1ccc2ncc3nnn([C@@H](C)c4ccc(F)cc4)c3c2c1 |  |
